# Experimental data as given in patent US20140235592A1, “SUBSTITUTED 6-METHOXY-4-AMINO-N-PHENYL-2-NAPHTAMIDES AS SPHINGOSINE RECEPTOR MODULATORS” (Allergan, Inc., priority 2013, published 2014).
# Biological target: T1, human S1P1 receptor (Homo sapiens, UniProt P21453)
# T1 construct: expressed in transfected cells; membranes used
# Assay: GTP γ35S binding assay for S1P1 activity
# Type: biochemical
# Conditions: membranes of cells stably expressing the S1P1 receptor, test concentrations 0.08 to 5,000 nM
# Procedure: Compounds were tested for S1 P1 activity using the GTP γ^35S binding assay. These compounds may be assessed for their ability to activate or block activation of the human S1 P1 receptor in cells stably expressing the S1 P1 receptor. GTP γ^35S binding was measured in the medium containing (mM) HEPES 25, pH 7.4, MgCl2 10, NaCl 100, dithiothreitol 0.5, digitonin 0.003%, 0.2 nM GTP γ^355, and 5 μg membrane protein in a volume of 150 μl. Test compounds were included in the concentration range from 0.08 to 5,000 nM unless indicated otherwise. Membranes were incubated with 100 μM 5′-adenylylimmidodiphosphate for 30 min, and subsequently with 10 μM GDP for 10 min on ice. Drug solutions and membrane were mixed, and then reactions were initiated by adding GTP γ^35S and continued for 30 min at 25° C. Reaction mixtures were filtered over Whatman GF/B filters under vacuum, and washed three times with 3 mL of ice-cold buffer (HEPES 25, pH7.4, MgCl2 10 and NaCl 100). Filters were dried and mixed with scintillant, and counted for ^35S activity using a β-counter. Agonist-induced GTP γ^355 binding was obtained by subtracting that in the absence of agonist. Binding data were analyzed using a non-linear regression method. In case of antagonist assay, the reaction mixture contained 10 nM S1P in the presence of test antagonist at concentrations ranging from 0.08 to 5000 nM.
# T1 sequence (P21453 whole entry): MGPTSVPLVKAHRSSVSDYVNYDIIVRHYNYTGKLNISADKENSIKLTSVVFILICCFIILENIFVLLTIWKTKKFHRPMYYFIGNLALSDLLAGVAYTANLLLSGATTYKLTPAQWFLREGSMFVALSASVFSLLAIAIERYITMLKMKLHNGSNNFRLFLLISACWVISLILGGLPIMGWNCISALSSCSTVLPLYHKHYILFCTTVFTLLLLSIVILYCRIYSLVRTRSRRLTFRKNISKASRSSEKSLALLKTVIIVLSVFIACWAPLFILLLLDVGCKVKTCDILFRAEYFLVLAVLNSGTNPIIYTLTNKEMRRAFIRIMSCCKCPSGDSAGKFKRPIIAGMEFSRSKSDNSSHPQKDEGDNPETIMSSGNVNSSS
row,SMILES,EC50
1,"COc1ccc2cc(C(=O)Nc3ccc(CNCCCP(=O)(O)O)cc3)cc(N(C)CC3CC3)c2c1 [Compound 3, [3-({4-[({4-[(cyclopropylmethyl)(methyl)amino]-6-methoxynaphthalen-2-yl}carbonyl)amino]benzyl}amino)propyl]phosphonic acid]",138 nM
2,"CCN(CC1CC1)c1cc(C(=O)Nc2ccc(CNCCCP(=O)(O)O)cc2)cc2ccc(OC)cc12 [Compound 5, [3-({4-[({4-[(cyclopropylmethyl)(ethyl)amino]-6-methoxynaphthalen-2-yl}carbonyl)amino]benzyl}amino)propyl]phosphonic acid]",401 nM
3,"CCN(CC)c1cc(C(=O)Nc2ccc(CNCCCP(=O)(O)O)cc2)cc2ccc(OC)cc12 [Compound 7, (3-{[4-({[4-(diethylamino)-6-methoxynaphthalen-2-yl]carbonyl}amino)benzyl]amino}propyl)phosphonic acid]",95 nM
4,"CCCN(C)c1cc(C(=O)Nc2ccc(CNCCCP(=O)(O)O)cc2)cc2ccc(OC)cc12 [Compound 8, [3-({4-[({6-methoxy-4-[methyl(propyl)amino]naphthalen-2-yl}carbonyl)amino]benzyl}amino)propyl]phosphonic acid]",160 nM
5,"COc1ccc2cc(C(=O)Nc3ccc(CNCCCP(=O)(O)O)cc3)cc(N(C)C)c2c1 [Compound 9, (3-{[4-({[4-(dimethylamino)-6-methoxynaphthalen-2-yl]carbonyl}amino)benzyl]amino}propyl)phosphonic acid]",494 nM
